Series [1] in a line: Pharmacokinetic profile in rat. The class given is in vivo.
In series [2] the target is T1, human recombinant DGAT1 enzyme expressed in insect cells (SF9 cells) (Homo sapiens, UniProt O75907).
T1 construct: made in house; host or cells: SF9 insect cells (microsomal membrane fraction)
T1 sequence (O75907 1-488): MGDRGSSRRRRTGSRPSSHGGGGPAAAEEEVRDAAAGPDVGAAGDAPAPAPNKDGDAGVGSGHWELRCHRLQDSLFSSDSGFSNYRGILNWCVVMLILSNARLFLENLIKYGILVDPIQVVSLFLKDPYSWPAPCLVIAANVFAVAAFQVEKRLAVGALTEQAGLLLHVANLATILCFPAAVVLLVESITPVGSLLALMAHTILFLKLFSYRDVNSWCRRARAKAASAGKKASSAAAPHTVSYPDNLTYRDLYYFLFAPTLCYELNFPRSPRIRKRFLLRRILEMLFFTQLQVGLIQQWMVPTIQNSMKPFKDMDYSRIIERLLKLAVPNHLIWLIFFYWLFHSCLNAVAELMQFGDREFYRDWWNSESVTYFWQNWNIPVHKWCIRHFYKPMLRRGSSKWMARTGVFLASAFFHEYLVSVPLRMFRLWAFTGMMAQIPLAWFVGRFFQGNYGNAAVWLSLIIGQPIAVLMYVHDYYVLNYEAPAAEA
The experiment in a line: DGAT-1 inhibition assay (IC50), SF9 microsomes. The conditions noted are these: SF9 insect cells expressing human DGAT-1. The class given is biochemical. On the procedure: The activity of DGAT-1 inhibitors in vitro was evaluated by using a human recombinant DGAT1 enzyme expressed in insect cells (SF9 cells). SF9 cells were homogenised by washing them with DPBS (Dulbecco’s phosphate-buffered saline) and then suspending cell pellets with a tris buffer (250 mM sucrose; 10 mM Tris-HCl [pH 7.4]; proteinase inhibitor). The resulting mixture was centrifugally separated at 10,000 × g for 30 min to remove the cell debris remaining in the lower layer thereof, and was centrifugally separated at 100,000 × g for 60 min to obtain a microsomal membrane. Further, membrane fractions were resuspended by the tris buffer, and then stored at -80 °C.
The activity of DGAT1 was measured according to the reported method. Specifically, 0.0001 – 10 μΜ (final concentration, FC) of the test compounds were cultured at room temperature (25 °C) for 15 min with a […] of SF9 microsomal protein solution and 100 mM of MgCl2 solution, and were then further cultured at room temperature (25 °C) for 30 min after the addition of 100 μΜ (FC in 12.5% EtOH) of 1,2-dioleyl-sn-glycerol and 30 μΜ (final conc.) of [14]C-oleyl coenzyme A. The reaction was completed by the addition of 300 μL of a mixed solution of 2-propanol/heptane (7:1), and radioactive triglyceride was separated from an organic solvent layer by using 200 μL of heptane and 200 μL of a 0.1 M carbonate buffer (pH 9.5). The amount of triglyceride was measured by liquid scintillography (Perkin Elmer, USA) after mixing with an organic solvent and an equivalent amount of scintillation solvent (MicroScint-O, Perkin Elmer, USA). The effects of inhibiting DGAT1 were calculated as percent in comparison with a control material.
The activities of synthesised compounds were evaluated using SF9 insect cells expressing human DGAT-1[22]. A potent DGAT-1 inhibitor, LCQ-908 (2 or pradigastat) was used as a positive control. […] The calculated lowest energy conformation model of 14c provided that the distance between the terminal carboxylic acid and NH of urea was over 16 Å, which may result in reduced activity. […]

The values that follow come from article PMC6882492, “Synthesis and biological evaluation of novel thienopyrimidine derivatives as diacylglycerol acyltransferase 1 (DGAT-1) inhibitors” (Journal of Enzyme Inhibition and Medicinal Chemistry, 2019).

Broadly, the half-life is how long it takes for the measured level to halve. The low end stands for fast loss, the high end for slow loss. In general, bioavailability refers to dose-corrected exposure relative to a reference, in per cent. Low readings indicate poor availability, high ones good availability. Usually AUC stands for the area under the concentration-time curve, a measure of exposure. A word on the IC50: it is the midpoint of a concentration-inhibition curve. `O=C([O-])C[C@H]1CC[C@@H](c2csc3c(-c4ccc(NC(=O)Nc5cccc(Cl)c5)cc4)ncnc32)CC1.[Na+]` [Compound 17a, Sodium cis-2–(4–(4-(4-(3–(3-chlorophenyl)ureido)phenyl)thieno[3,2-d]pyrimidin-7-yl)cyclohexyl)acetate]: the Cl in series [1] (3 mg/kg iv, 10 mg/kg po) came out at 8.3 ± 3.3 mL/min/kg. This compound gave a half-life in series [1] (in vivo, 10 mg/kg po) of 3 ± 0.4 h. In series [1] (in vivo, 10 mg/kg po vs 3 mg/kg iv), this compound registered a bioavailability of 30%. The AUC in series [1] (in vivo, 10 mg/kg po, read-out: AUC 0 ∼ 24) came to 18600 ng·h/mL. The IC50 in series [2] amounted to 74 nM.
